Assay results as given in patent US20250163072A1, “MACROCYCLIC COMPOUNDS FOR THE TREATMENT OF CANCER” (Hoffmann-La Roche Inc., priority 2021, published 2025).

How the values were obtained:
[1] = molecular target: KRAS G12V binding to BRAF (Homo sapiens (Human), UniProt P01116+P62937, G12V); assay: KRAS-BRAF with CYPA (50 nM) interaction assay (TR-FRET), G12V; conditions: GMPPNP loaded 6His-KRAS, GST-BRAF RBD
Summary of the method: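 Buffer 25 mM HEPES pH 7.4, 100 mM NaCl, 5 mM MgCl2, 10 μM GMPPNP, 0.1% BSA; final 50 nM tagless CYPA, 6.25 nM GMPPNP-loaded 6His-KRAS mutant, 1 nM GST-BRAF RBD. Compounds 16-point 3-fold series from 10 μM, 3 h; anti-6His-XL665/anti-GST-Tb added, 1.5 h; 665/615 nm ratio decrease versus DMSO.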

[2] = tested on: KRAS G12V in SW620; assay: pERK inhibition assay, SW620; format: cell-based, human; conditions: Homo sapiens, SW-620, SW620 cells, 4 hours incubation
Summary of the method: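 NCI-H358, AGS and SW620 cells in RPMI-1640/10% FBS were plated overnight, then exposed to compound (0.5% DMSO final) for 4 h. After fixation and permeabilization, phospho-ERK was quantified by in-cell ELISA (HRP secondary, TMB, OD450); IC50 from a 4-parameter sigmoidal fit.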

[3] = Human hepatocytes stability assay; format: in vitro ADME
Summary of the method: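 Compound at 1 μM incubated with cryopreserved suspension hepatocytes (1×10^6 cells/mL) in supplemented Williams' E Medium at 37° C, 5% CO2, with shaking. Reactions quenched with methanol at 2, 10, 20, 40, 60 and 120 min; parent depletion followed by LC-MS/MS.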

Chain of KRAS G12V binding to BRAF (P01116-2 other isoform, or with tags, fused parts or gaps G12V): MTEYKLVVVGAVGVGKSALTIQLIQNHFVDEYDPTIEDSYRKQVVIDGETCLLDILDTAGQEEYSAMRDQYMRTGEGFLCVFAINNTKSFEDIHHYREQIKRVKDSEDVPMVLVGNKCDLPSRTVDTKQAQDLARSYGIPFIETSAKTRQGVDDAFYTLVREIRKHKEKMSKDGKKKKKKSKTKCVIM
Chain of KRAS G12V binding to BRAF (P62937 whole entry): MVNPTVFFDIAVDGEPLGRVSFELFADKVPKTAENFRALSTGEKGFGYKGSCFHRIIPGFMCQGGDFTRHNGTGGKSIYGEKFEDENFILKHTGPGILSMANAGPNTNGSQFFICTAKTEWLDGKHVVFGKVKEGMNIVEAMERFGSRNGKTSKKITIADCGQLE

Q: Which results are given for `CO[C@@H](C)c1ncc(N2CCOCC2)cc1-c1c2c3cc(ccc3n1CC(F)(F)F)-c1csc(n1)C[C@H](NC(=O)[C@H](C(C)C)N(C)C(=O)[C@H]1CCN(C(=O)[C@H](F)Cl)C1)C(=O)N1CCC[C@H](N1)C(=O)OCC(C)(C)C2` (atropisomer, axis not shown; (M)) [Example 25, (3S)-1-[(2R)-2-chloro-2-fluoro-acetyl]-N-[(1S)-1-[[(7S,13S)-(20M)-20-[2-[(1S)-1-methoxyethyl]-5-morpholino-3-pyridyl]-17,17-dimethyl-8,14-dioxo-21-(2,2,2-trifluoroethyl)-15-oxa-4-thia-9,21,27,28-tetrazapentacyclo[17.5.2.12,5.19,13.022,26]octacosa-1(25),2,5(28),19,22(26),23-hexaen-7-yl]carbamoyl]-2-methyl-propyl]-N-methyl-pyrrolidine-3-carboxamide]?
A: IC50 [1]: > 10000 nM; IC50 [2]: 3 nM; CL_hep (Human) ([3]; 1 μM compound, human hepatocytes 1×10^6 cells/mL): 9.8 mL/min/kg; Clearance Category ([3]; human hepatocytes): medium (16.24<CL_hep (mL/min/kg)>6.96 is medium clearance)
